{"source": "patent US20240415804A1", "about": "“METHOD OF TREATING PANCREATIC CANCER” (University of South Florida, priority 2022, published 2024)", "key": {"MiaPaCa-2 cells": {"test_system": "MiaPaCa-2 cells", "test": "MTT cell viability assay, MiaPaCa-2", "assay_type": "cell-based, human", "settings": "API 40 μM, 24 h, vs DMSO vehicle", "procedure": "The methyl thiazol tetrazolium (MTT) assay was performed as described previously^58. Briefly, MiaPaCa-2, Panc02 and UN-KC-6141 cells were seeded in 96-well plates at a density of 3000 cells/well and allowed to attach overnight. PC cells were then treated with API (40 μM) or DMSO (1%) as vehicle control for 24 h at 37° C. in 5% CO2 incubator. After 24 h, media was replaced with 20 μL of MTT (1 mg/mL) (Sigma-Aldrich) and incubated for 3 h at 37° C. in 5% CO2. MTT was replaced with DMSO, and absorbance was read at 570 nm.\nMiaPaCa-2, Panc02 and UN-KC-6141 cells (2×10^5) were grown in 2 mL of growth medium in a 6-well tissue culture plate for 18-24 h until 60-80% confluency. The following solutions were prepared: Solution A) For each transfection, diluted 1 μL of miRNA-155 inhibitors (1 μM) (Table 2) or scrambled negative control miRNA (1 μM) (Qiagen, Germantown, MD, USA) into 50 μL Opti-MEM Transfection Medium (Invitrogen, Waltham, MA, USA). Solution B) For each transfection, diluted 3 μL of Hi-Perfect Transfection Reagent into 50 μL Opti-MEM Transfection Medium. Solution A was added directly to Solution B, mixed gently and the mixture incubated for 10-15 min at room temperature. […]"}, "CD40": {"test_system": "CD40", "test": "Flow cytometry of CD40 expression on M1 TAM in tumors of KC-HPC mice", "assay_type": "in vivo, mouse", "settings": "KC-HPC-API vs KC-HPC mice", "procedure": "(§1) The inventors then assessed the expression of CD40 (a T cell co-stimulation marker) on M1 TAM (gated as MHC-II^+ and CD206) within the tumor from KC-HPC vs. KC-HPC-API mice. […] The femur and tibia were cut at the pelvic-hip joint and muscle was removed. The femurs and tibias were cut at the ends and flushed with a 30-gauge needle and 10 cc syringe filled with completed RPMI media until bone was white onto a petri dish. Pelleted bone marrow (BM) cells were treated with Red Blood Cell (RBC) lysis buffer (eBioscience, Waltham, MA, USA), according to the manufacturer's instructions, and then filtered through a […] nylon mesh cell strainer in 1×PBS. All pancreatic tumors were manually cut into ˜1-2 mm^3 fragments with a sterile razor blade and then enzymatically digested with Collagenase, type IV (Sigma-Aldrich), DNase, type IV (Sigma-Aldrich) and Hyaluronidase, Type V (Sigma-Aldrich) in Hank's Balanced Salt Solution for 1 h, spun down and washed as described in previous studies^61. Digested pancreatic tumor samples were treated with RBC lysis buffer and then filtered through a […] nylon mesh cell strainer in 1×PBS. Bone marrow and digested pancreatic tumor single cell suspensions were counted with a hemocytometer and then resuspended in 3% FBS/PBS. […]"}, "UN-KC-6141 tumors": {"test_system": "UN-KC-6141 tumors", "test": "Tumor growth in KC-HPC mice", "assay_type": "in vivo, mouse", "settings": "API 25 mg/kg IP three times per week", "procedure": "To build on these findings, the inventors then used a novel pancreatic cancer cell line, UN-KC-6141, that resembles human PC due to its expression of a mutated Kras and generated mice harboring these tumor cells, called KC-HPC mice. Such mice were treated with API at a dose of 25 mg/kg (IP) three times per week for 17 days. The inventors examined if API also targets miR-155 and regulates SHIP-1 in the tumors from KC-HPC mouse model. […] All female C57BL/6 mice (6-8 weeks of age) described in this study were purchased from Envigo (Indianapolis, IN, USA) and were acclimatize for one week in a pathogen-free animal facility (University of South Florida (USF) vivarium) before injections with PC cells. To generate heterotopic pancreatic cancer (HPC) models, mice were subcutaneously injected with 1.5×10^5 murine Panc02 (HPC mice) or 5×10^6 murine UN-KC-6141 cells (KC-HPC mice), in sterile 1× phosphate buffer saline (PBS), in the lower ventral abdomen, while control (CTRL) mice received sterile 1×PBS. Once tumors where palpable, API (25 mg/kg, 100 μL volume) treatments (HPC-API and KC-HPC-API), via intraperitoneal (IP) injections, were started while CTRL, HPC and KC-HPC mice received sterile PBS (vehicle) three times per week until the end of the study^12, 55. The HPC models were euthanized 21-28 days post-injection, while the KC-HPC models were euthanized 16-17 days post-injection."}, "[1]": {"test_system": "CD8+ T cells (CD3+CD8+CD4−)", "test": "Flow cytometry of intra-tumoral CD8+ T cells and CD40L in KC-HPC mice", "assay_type": "in vivo, mouse", "settings": "API-treated vs vehicle-treated KC-HPC mice", "procedure": "as §1, with “FBS/PBS. BM and digested pancreatic tumor cells (1×10^6) were Fc Blocked (anti-mouse CD16/CD32) and then surface stained for 30 min on ice protected from light with fluorescent anti-mouse antibodies including, CD11b-APC, Ly6C-PE/Cy7, Ly6G-PerCP, F4/80-BV650, MHC—II-BV605, CD206-FITC and CD40-PE/Cy5 along with isotype control antibodies (Biolegend, San Diego, CA, USA) to detect MDSC and macrophage subsets. Digested pancreatic tumor cells (1×10^6) were also Fc Blocked and then surface stained with fluorescent anti-mouse antibodies including CD3-FITC, CD8-PercP/Cy5.5, CD4-APC/Cy7, and CD40L-APC along with isotype control antibodies (Biolegend) to detect CD8^+ T cells. Subsequently, all samples were fixed with 2% paraformaldehyde for 15 min on ice protected from light.” for “FBS/PBS.”"}}}
{"smiles": "O=c1cc(-c2ccc(O)cc2)oc2cc(O)cc(O)c12", "note": "[API, 40,5,7-Trihydroxyflavone, 5,7-Dihydroxy-2-(4-hydroxyphenyl)-4-benzopyrone]", "values": [{"measurement": "cell viability (MTT)", "setting": "MiaPaCa-2 cells", "result": "significantly inhibited"}, {"measurement": "CD40 expression on M1 TAM in tumor", "setting": "CD40", "result": "significantly upregulated"}, {"measurement": "tumor burden (tumor volume, tumor area)", "setting": "UN-KC-6141 tumors", "result": "significantly reducing"}, {"measurement": "CD40L expression on intra-tumoral CD8+ T cells", "setting": "[1]", "result": "no significant changes"}, {"measurement": "intra-tumoral CD8+ T cells (flow cytometric analysis)", "setting": "[1]", "result": "significant increase"}, {"measurement": "intra-tumoral CD8+ T cells absolute cell numbers", "setting": "[1]", "result": "significant increase"}]}
